In ChEMBL document CHEMBL1201862, “PubChem BioAssay data set” (2004) one finds IC50, EC50 and AC50 data, which are given here for 18 compounds.

Active and inactive are the calls of the source.

One assay deals with Nonstructural protein 1 (Influenza A virus, UniProt Q194T2). It counts as functional, Influenza A virus (A/California/07/2009(H1N1)).
The nature of assay [1]: DRD fibroblast viability loss – cell-based, non-viral oncogenic, luminescence, dose response (AID 1934). It counts as functional. As to conditions: Homo sapiens.
For a further assay, the target named is T1, Protein RecA (Mycobacterium tuberculosis, UniProt P9WHJ3).
T1 sequence (P9WHJ3 whole entry): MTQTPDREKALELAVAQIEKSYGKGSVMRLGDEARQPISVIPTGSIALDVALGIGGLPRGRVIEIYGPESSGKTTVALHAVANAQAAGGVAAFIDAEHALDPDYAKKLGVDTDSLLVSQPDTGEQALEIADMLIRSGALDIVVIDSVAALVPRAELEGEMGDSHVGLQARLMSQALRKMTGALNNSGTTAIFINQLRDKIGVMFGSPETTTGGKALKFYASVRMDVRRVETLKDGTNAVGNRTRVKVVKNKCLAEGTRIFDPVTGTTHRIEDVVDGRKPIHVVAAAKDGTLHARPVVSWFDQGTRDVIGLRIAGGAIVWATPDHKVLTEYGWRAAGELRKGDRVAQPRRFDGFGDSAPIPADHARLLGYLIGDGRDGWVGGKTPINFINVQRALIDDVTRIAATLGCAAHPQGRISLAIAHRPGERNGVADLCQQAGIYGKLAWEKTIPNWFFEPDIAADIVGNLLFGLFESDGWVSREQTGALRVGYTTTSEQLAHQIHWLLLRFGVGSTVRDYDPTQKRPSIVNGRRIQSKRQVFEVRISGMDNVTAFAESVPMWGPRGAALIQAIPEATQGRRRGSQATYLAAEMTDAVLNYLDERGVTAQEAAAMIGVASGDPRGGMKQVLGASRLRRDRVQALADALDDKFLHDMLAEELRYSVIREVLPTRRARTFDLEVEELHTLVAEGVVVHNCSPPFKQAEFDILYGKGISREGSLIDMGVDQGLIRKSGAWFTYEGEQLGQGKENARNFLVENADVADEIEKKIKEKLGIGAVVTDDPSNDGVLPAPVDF
Kind of assay: Fluorescence Cell-Free Homogeneous Dose Retest to Identify Inhibitors of RecA-Intein Splicing Activity. [Related pubchem assays (depositor defined):AID2097, AID2223, AID489010, AID492950]. Format: functional.

Assay [2] has as its system BJ. Put plainly: BJ-TERT-LT-ST fibroblast viability loss – cell-based, RAS-independent, luminescence, dose response (AID 1935).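 Also: BJ fibroblasts immortalized with TERT plus LT and ST oncogenes.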 Format: functional. The following applies: Homo sapiens.
For assay [3], the system named is BJ. Put plainly: BJ-TERT fibroblast viability loss – cell-based, RAS-independent, luminescence, dose response (AID 1933). As to conditions: Homo sapiens. Format: functional.
Assay [4] deals with T2, Replicative DNA helicase DnaB (Mycobacterium tuberculosis, UniProt P9WMR3).
T2 sequence (P9WMR3 whole entry): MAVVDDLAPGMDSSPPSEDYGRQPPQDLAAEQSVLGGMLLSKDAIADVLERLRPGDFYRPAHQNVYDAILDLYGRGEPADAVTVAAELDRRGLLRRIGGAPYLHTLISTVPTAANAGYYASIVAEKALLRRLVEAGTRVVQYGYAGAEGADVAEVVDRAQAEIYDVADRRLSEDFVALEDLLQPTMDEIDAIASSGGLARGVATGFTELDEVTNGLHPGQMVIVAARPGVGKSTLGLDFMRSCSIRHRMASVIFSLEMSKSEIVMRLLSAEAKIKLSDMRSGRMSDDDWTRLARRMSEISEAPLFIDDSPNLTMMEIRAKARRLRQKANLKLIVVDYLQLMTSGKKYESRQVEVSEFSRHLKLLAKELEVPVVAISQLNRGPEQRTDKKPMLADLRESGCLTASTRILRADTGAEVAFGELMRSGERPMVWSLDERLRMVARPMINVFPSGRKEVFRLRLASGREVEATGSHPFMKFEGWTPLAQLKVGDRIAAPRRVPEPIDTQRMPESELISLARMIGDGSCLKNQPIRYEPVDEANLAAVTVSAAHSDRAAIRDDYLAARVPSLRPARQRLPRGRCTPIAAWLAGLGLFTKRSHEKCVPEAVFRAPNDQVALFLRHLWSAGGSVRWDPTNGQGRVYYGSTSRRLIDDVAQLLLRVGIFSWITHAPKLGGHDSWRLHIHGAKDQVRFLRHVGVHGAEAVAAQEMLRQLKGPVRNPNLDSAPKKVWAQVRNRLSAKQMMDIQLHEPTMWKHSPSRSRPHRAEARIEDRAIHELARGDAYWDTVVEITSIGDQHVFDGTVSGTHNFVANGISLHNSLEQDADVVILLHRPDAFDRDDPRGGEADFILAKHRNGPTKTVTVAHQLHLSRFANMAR
Put plainly: DnaB intein splicing inhibitors, dose response, biochemical, cell-free fluorescence (AID 449749). Format: functional.

In assay [5] the test system is BJ. Put plainly: cells. Format: functional, cell-based. As to conditions: Homo sapiens.
Assay [6] addresses T3, Short transient receptor potential channel 4 (Mus musculus, UniProt Q9QUQ5).
T3 sequence (Q9QUQ5 whole entry): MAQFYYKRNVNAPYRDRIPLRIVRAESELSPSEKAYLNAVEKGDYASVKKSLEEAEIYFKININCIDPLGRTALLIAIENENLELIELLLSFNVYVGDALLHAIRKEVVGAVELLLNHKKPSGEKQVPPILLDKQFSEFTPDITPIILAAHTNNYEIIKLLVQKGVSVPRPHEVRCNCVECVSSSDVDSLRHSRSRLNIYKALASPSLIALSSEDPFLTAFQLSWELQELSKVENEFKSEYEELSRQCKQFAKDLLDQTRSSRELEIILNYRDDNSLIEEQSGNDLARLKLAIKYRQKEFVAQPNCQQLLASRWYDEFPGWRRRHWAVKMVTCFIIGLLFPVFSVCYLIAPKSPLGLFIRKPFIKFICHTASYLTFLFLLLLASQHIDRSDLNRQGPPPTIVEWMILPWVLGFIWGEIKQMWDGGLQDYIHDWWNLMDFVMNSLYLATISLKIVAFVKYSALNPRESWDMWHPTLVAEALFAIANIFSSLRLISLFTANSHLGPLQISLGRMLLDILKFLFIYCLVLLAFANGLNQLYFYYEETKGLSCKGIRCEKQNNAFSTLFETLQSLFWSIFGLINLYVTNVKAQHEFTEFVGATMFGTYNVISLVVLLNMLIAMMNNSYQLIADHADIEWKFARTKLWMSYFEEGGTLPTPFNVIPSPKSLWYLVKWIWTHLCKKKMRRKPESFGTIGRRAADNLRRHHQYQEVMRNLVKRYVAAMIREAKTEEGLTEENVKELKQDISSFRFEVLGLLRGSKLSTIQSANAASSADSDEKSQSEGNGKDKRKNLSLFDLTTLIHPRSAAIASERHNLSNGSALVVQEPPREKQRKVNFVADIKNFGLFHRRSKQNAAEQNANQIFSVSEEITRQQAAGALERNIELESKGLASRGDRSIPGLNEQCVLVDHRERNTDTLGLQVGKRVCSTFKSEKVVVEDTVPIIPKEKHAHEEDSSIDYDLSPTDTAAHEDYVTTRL
Put plainly: block of DAMGO-driven TRPC4 calcium entry – cell-based, HEK293 TRPC4/mu-opioid, Fluo-4 calcium, dose response (AID 434942).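 Also: potency of inhibitors blocking the TRPC4 calcium response.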 It counts as functional.

The target of assay [7] is Glyceraldehyde-3-phosphate dehydrogenase (Homo sapiens, UniProt P04406).
Chain of Glyceraldehyde-3-phosphate dehydrogenase (P04406 whole entry): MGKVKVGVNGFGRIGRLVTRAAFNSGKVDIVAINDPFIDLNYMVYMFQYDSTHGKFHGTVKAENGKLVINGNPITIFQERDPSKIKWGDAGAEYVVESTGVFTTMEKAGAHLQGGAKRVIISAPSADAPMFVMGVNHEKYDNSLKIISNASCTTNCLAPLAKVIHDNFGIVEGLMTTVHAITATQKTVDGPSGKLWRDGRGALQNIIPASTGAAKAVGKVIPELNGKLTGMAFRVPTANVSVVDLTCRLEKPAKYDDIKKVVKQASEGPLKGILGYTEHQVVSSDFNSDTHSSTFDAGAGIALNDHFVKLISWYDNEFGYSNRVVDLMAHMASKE
Assay [8] in a line: Luminescence Cell-Based Dose Confirmation HTS to Identify Inhibitors of Platelet Dense Granule Release. [Related pubchem assays: 1663 (Primary HTS), 1678 (Summary of Project)]. Format: functional.
Assay [9] concerns the target Luciferin 4-monooxygenase (Photinus pyralis, UniProt P08659). Kind of assay: inhibition of purified Photinus pyralis luciferase – biochemical, luminescence, dose response (AID 1891).
Assay [10] can be described thus: A cytotoxicity screen of small molecule inhibitors of the PhoP region in Salmonella typhi identified in the primary screen. [Related pubchem assays: 1850, 1864, 1985 ]. It counts as functional.
Assay [11] can be described thus: alpha-synuclein stem-loop luciferase translation blockers – H4 neuroglioma cells, luminescence, confirmation (AID 1988). Format: functional, cell-based.
Assay [12] can be described thus: luciferase reporter signal suppression in cells – H4 neuroglioma cells, luminescence, dose response (AID 1990). Format: functional, cell-based. In general terms: A reporter such as luciferase makes a cellular process visible.
The nature of assay [13]: Luminescence Cell-Based Dose Response HTS to Identify Inhibitors of 5'UTR Stem-Loop Driven Prion Protein mRNA Translation in H4 Neuroglioblastoma Cells. [Related pubchem assays: 1827 (Project Summary), 1813 (Primary HTS)]. Format: functional.
The target of assay [14] is T4, Microphthalmia-associated transcription factor (Homo sapiens, UniProt O75030).
T4 sequence (O75030 whole entry): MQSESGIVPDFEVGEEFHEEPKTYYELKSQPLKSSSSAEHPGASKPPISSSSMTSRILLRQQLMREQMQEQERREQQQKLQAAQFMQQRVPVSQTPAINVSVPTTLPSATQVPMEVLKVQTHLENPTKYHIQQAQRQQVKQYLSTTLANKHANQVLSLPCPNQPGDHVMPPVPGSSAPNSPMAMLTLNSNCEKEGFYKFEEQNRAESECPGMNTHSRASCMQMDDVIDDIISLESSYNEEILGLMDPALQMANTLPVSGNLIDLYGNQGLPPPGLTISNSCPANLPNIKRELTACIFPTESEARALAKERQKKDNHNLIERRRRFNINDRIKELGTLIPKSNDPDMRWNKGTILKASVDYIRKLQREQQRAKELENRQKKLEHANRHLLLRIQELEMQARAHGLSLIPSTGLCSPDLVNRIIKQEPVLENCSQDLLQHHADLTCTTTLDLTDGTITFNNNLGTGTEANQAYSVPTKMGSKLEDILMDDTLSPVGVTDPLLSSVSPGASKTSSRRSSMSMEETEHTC
Kind of assay: reducers of TRPM1 reporter luminescence, concentration series – cell-based, SK-MEL-5, cherry-picked, set 3, MITF inhibitor project, dose response (AID 493073).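 Also: SK-MEL-5 melanoma cells with luciferase driven by the MITF target TRPM1 promoter.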 It counts as functional.

Chain of Nonstructural protein 1 (Q194T2 whole entry): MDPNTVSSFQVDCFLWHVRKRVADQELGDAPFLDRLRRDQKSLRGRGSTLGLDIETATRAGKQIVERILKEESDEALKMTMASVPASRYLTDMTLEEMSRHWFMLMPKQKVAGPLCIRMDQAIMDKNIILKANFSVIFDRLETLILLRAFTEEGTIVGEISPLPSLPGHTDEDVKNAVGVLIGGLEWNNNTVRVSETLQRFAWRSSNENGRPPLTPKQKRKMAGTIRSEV
Chain of Luciferin 4-monooxygenase (P08659 whole entry): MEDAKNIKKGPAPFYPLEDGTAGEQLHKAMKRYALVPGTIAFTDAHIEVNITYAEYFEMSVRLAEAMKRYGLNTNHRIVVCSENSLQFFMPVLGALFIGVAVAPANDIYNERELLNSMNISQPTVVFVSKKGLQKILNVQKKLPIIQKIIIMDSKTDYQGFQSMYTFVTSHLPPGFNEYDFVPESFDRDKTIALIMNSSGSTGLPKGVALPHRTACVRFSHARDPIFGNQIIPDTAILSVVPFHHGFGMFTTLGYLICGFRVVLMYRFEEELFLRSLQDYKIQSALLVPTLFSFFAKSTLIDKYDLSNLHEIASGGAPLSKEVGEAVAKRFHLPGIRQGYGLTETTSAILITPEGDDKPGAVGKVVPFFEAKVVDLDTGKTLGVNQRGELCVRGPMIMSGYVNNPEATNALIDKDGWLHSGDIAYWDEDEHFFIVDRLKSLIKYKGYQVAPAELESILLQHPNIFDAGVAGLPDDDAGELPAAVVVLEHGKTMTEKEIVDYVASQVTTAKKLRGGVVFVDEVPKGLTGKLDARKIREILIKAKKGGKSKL

For the compound `O=C1C(=C(c2ccccc2)c2ccccc2)Nc2ccccc21`, the IC50 at Nonstructural protein 1 is 30.3 µM (active). For the compound `O=C(CCl)N(Cc1cccc([N+](=O)[O-])c1)c1cccc(Cl)c1`, the EC50 in assay [1] was 1.22 µM (active); on Protein RecA, 0.512 µM (active); in the assay on BJ [2], 4.87 µM (inconclusive); in the assay with BJ [3] it was 0.25 µM (active); in the assay with BJ [5] it was 1.41 µM (inconclusive). In assay [4], the AC50 is 5.28 µM (active). Regarding `CN1CCN(Cc2c[nH]nc2-c2ccc(F)cc2F)[C@@H](c2ccccc2)C1`, the EC50 in assay [6] was 4.22 µM (active). As for `O=[N+]([O-])c1cccc(/C=N/c2cc3c(cc2Br)OCCO3)c1`, the IC50 on Nonstructural protein 1 was > 100 µM (active). With `Cc1ccc(N2C(=O)C(Cl)=C(N3CCN(C)CC3)C2=O)cc1`, the IC50 in [7] was > 50 µM (inconclusive). On to `Cc1ccsc1C(=O)Nc1ccc(OCc2ccccc2)cc1`, for which the EC50 in assay [1] is > 150 µM (inconclusive); in assay [8], 5.83 µM (active); in the assay on BJ [2] it was > 150 µM (not active); in the assay on BJ [3], > 150 µM (not active); in assay [9] it was 1.7 µM (active); in the assay with BJ [5], 34.4 µM (active). For the compound `Fc1cccc(Cl)c1CSc1ccc(-c2ccco2)nn1`, the concentration giving a half-maximal response (EC50) in [10] is > 50 µM (active). For the compound `c1csc(CNc2nc(-c3cccs3)nc3ccccc23)c1`, the EC50 in assay [6] was 4.73 µM (active). On to `COc1cccc(N2C(=O)C(Cl)=C(N3CCN(C)CC3)C2=O)c1`, for which, in [7], the IC50 was > 50 µM (inconclusive). For the compound `CCCCCN1C(=O)/C(=C/c2c(N3CCc4ccccc4C3)nc3ccccn3c2=O)SC1=S`, the EC50 in assay [10] was > 50 µM (active). On the same count and under the same terms, the value for `Cc1noc(C)c1S(=O)(=O)N1CCC(Cc2ccccc2)CC1` was > 50 µM (active). For the compound `CCC1CCCCN1c1nc(-c2cccc(OC)c2O)nc2ccccc12` (stereo unspecified), the IC50 at Nonstructural protein 1 is > 100 µM (active).

As to `COC(=O)c1ccc(Nc2cc(C)nc3ccccc23)cc1`, the concentration giving a half-maximal response (EC50) in [11] is 7.97 µM (active); in assay [6], 3.76 µM (active); in [12], 11.6 µM (active); in assay [13], 16.4 µM (active).

In the case of `O=C1C(Cl)=C(N2CCOCC2)C(=O)N1c1ccc(C(F)(F)F)cc1`, the IC50 in assay [7] is > 50 µM (inconclusive). `CC1CC1C(=O)Nc1nc2ccc(S(C)(=O)=O)cc2s1` (stereo unspecified): the EC50 in assay [10] is > 50 µM (active). For the compound `OCCNc1nc2ccccc2n1CCN1CCCCC1`, in [6], the EC50 is 3.35 µM (active). Consider `Cc1ccc(SCc2n[nH]c3c2C(c2cccnc2)C(C#N)=C(N)O3)cc1` (stereo unspecified), for which the EC50 in assay [10] was > 50 µM (active). For the compound `O=[N+]([O-])c1ccc(/C=N/N=C/c2ccc([N+](=O)[O-])o2)o1`, the half-maximal activity concentration (AC50) in assay [14] was 9.36 µM (active).

The IC50 is the concentration at which inhibition is half-maximal. For orientation: EC50 means the concentration needed to bring the measured effect to its halfway point. The term AC50 denotes the concentration at which the activity in the assay is half-maximal.
